In this test the test system is FADD-deficient Jurkat cells. The test can be described thus: necroptosis assay (TNF-α-induced necroptosis, CellTiter-Glo ATP-based viability). It counts as cell-based. The settings on record: FADD-deficient Jurkat cells treated with 10 ng/ml human TNFalpha for 24 hr, eleven concentrations. As to the method:
Evaluation of necroptosis inhibitory activity can be performed using a FADD-deficient variant of human Jurkat T cells treated with TNF-α as previously described (Degterev et al., Nat. Chem. Biol. 1:112 (2005) and Jagtap et al., J. Med. Chem. 50: 1886 (2007)). For EC50 value determinations, cells can be treated with 10 ng/mL of human TNF-α in the presence of increasing concentration of test compounds for 24 hours followed by ATP-based viability assessment.
ATP-based viability assessment: Briefly, necroptosis activity can be performed using a FADD-deficient variant of human Jurkat T cells treated with TNF-α. For EC50 value determinations, cells (500,000 cells/mL, 100 μL per well in a 96-well plate) can be treated with 10 ng/mL of human TNF-α in the presence of increasing concentration of test compounds for 24 hours at 37° C. in a humidified incubator with 5% CO2 followed by ATP-based viability assessment. Stock solutions (30 mM) in DMSO can be prepared and then diluted with DMSO to give testing solutions, which were added to each test well. The final DMSO concentration can be 0.5%. Eleven compound test concentrations (0.030-100 μM) can be used, and each concentration can be done in duplicate.
Cell viability assessments can be performed using a commercial luminescent ATP-based assay kit (CellTiter-Glo, Promega, Madison, Wis.) according to the manufacturer's instructions. Briefly, 40 μL of the cell lysis/ATP detection reagent can be added to each well. Plates can be incubated on a rocking platform for 10 minutes at room temperature and luminescence was measured using a Wallac Victor 3 plate-reader (Perkin Elmer, Wellesley, Mass.). Cell viability can be expressed as a ratio of the signal in the well treated with TNF-α and compound to the signal in the well treated with compound alone in order to account for nonspecific toxicity. EC50 values can be calculated using nonlinear regression analysis of sigmoid dose-response (variable slope) curves from plots of log [I] verses viability values.
For necroptosis assay, FADD-deficient Jurkat cells were treated with 10 ng/ml human TNFalpha for 24 hr, followed by CellTiter-Glo viability assay (Promega). EC50 values were calculated using non-linear regression in GraphPad Prism software. Eleven concentrations of each compound were tested to generate dose response curves.
For orientation: ATP-based viability assays read luminescence as a measure of living cells.

What is called EC50 is the concentration needed to bring the measured effect to its halfway point.

Regarding `Cc1ccc(C(=O)NCCN2C(=O)NC(Cc3c[nH]c4c(Cl)cccc34)C2=O)cc1C#Cc1cnc2cccnn12` (stereo not drawn) [Compound (1)], the EC50 turned out to be 200 nM.

With `Cc1ccc(C(=O)NCCN2C(=O)NC(Cc3c[nH]c4c(Cl)cccc34)C2=O)cc1C#Cc1cnc2ccccn12` (stereo not drawn) [Compound (2)], the EC50 was 163 nM.

The compound `O=C(NCCN1C(=O)NC(Cc2c[nH]c3c(Cl)cccc23)C1=O)c1cccc(C#Cc2cnc3cccnn23)c1` (stereo not drawn) [Compound (3)] yielded an EC50 of 364 nM.

Turning to `Cc1ccc(C(=O)NCCN2C(=O)NC(Cc3c[nH]c4c(Cl)cccc34)C2=O)cc1CCc1cnc2cccnn12` (stereo not drawn) [Compound (8)], the midpoint of the response, the EC50, lay at 1770 nM.

`Cc1ccc(CCCCN2C(=O)NC(Cc3c[nH]c4c(Cl)cccc34)C2=O)cc1C#Cc1cnc2cccnn12` (stereo not drawn) [Compound (29)] displayed an EC50 of 9.9 nM.

With `Cc1ccc(SCCN2C(=O)NC(Cc3c[nH]c4c(Cl)cccc34)C2=O)cc1C#Cc1cnc2cccnn12` (stereo not drawn) [Compound (30)], the EC50 worked out at 80.4 nM.

Turning to `Cc1ccc(CCN2C(=O)NC(Cc3c[nH]c4c(Cl)cccc34)C2=O)cc1C#Cc1cnc2cccnn12` (stereo not drawn) [Compound (31)], the EC50 was found to be 136 nM.

As to `Cc1ccc(OCCN2C(=O)NC(Cc3c[nH]c4c(Cl)cccc34)C2=O)cc1C#Cc1cnc2cccnn12` (stereo not drawn) [Compound (32)], the midpoint of the response, the EC50, lay at 134 nM.

For `Cc1ccc(CCCN2C(=O)NC(Cc3c[nH]c4c(Cl)cccc34)C2=O)cc1C#Cc1cnc2cccnn12` (stereo not drawn) [Compound (33)], the EC50 came out at 74.4 nM.

Regarding `Cc1ccc(CCCCCN2C(=O)NC(Cc3c[nH]c4c(Cl)cccc34)C2=O)cc1C#Cc1cnc2cccnn12` (stereo not drawn) [Compound (34)], the EC50 worked out at 185 nM.

`Cc1cc(CCCCN2C(=O)NC(Cc3c[nH]c4c(Cl)cccc34)C2=O)ccc1C#Cc1cnc2cccnn12` (stereo not drawn) [Compound (35)] returned an EC50 of 299 nM.

In the case of `CNC(=O)c1cc(Oc2ccc(NC(=O)CCN3C(=O)NC(Cc4c[nH]c5c(Cl)cccc45)C3=O)c(F)c2)ccn1` (stereo not drawn) [Compound (36)], the EC50 was 19300 nM.

In turn, `CNC(=O)c1cc(Oc2ccc(CCCN3C(=O)NC(Cc4c[nH]c5c(Cl)cccc45)C3=O)c(F)c2)ccn1` (stereo not drawn) [Compound (37)] registered an EC50 of 24500 nM.

`CNC(=O)c1cc(Oc2ccc(NC(=O)N3C(=O)NC(Cc4c[nH]c5c(Cl)cccc45)C3=O)c(F)c2)ccn1` (stereo not drawn) [Compound (38)]: the “EC50, nM in necroptosis assay” value is given as “INACTIVE”.

As to `O=C1NC(Cc2c[nH]c3c(Cl)cccc23)C(=O)N1CCC#Cc1cnc2cccnn12` (stereo not drawn) [Compound (41)], the midpoint of the response, the EC50, lay at 745 nM.

The values are drawn from patent US20160024098A1, “HYBRID NECROPTOSIS INHIBITORS” (PRESIDENT AND FELLOWS OF HARVARD COLLEGE, priority 2013, published 2016).
